{"source": "patent US7834152B2", "about": "“Antagonists of interleukin-15” (Beth Israel Deaconess Medical Center, Inc., priority 1996, dated 2010)", "key": {"[1]": {"tested_on": "IL-2Rαγ+ BAF-BO3 cells that express mutant S− IL-2Rβ subunit", "assay": "Proliferation assay, BAF-BO3 cells expressing mutant S− IL-2Rβ subunit", "format": "cell-based, murine", "conditions": "IL-2Rβ lacking serine-rich region (S−), 38 hours", "description": "Error bars indicate the mean±standard deviation.\nTherefore, the ability of IL-15 to induce the proliferation of IL-2Rαγ^+BAF-BO3 cells that express either the wild-type IL-2Rβ subunit or a mutant IL-2Rβ protein that lacks the serine rich region (S^−)."}, "[2]": {"tested_on": "IL-15 binding sites on PHA-activated human PBMCs", "assay": "Flow cytometry staining of PHA-activated PBMCs (anti-FLAG biotinylated Ab, streptavidin-RED670)", "method": "Resting or PHA-activated PBMCs (3×10^5 cells/tube) were washed twice with ice-cold PBS/0.02% sodium azide and incubated in medium containing FLAG-HMK-IL-15 (0.1 μg/100 μl) or, as a control, in medium alone. The incubation was carried out on ice for 30 minutes. The cells were then washed with PBS and incubated for two sequential 30 minute periods at 4° C. with biotin-conjugated anti-FLAG monoclonal antibody (0.5 μg/100 μl) and streptavidin-RED670 (0.5 μg/100 μl). The cells were then counterstained with CD25-PE, CD14-PE, CD16-PE, CD122-PE, CD4-FITC, or CD8-FITC, as indicated. […] Cell surface phenotype was analyzed using FACScan (Becton/Dickinson, Calif.) and Cell Quest software.\nThe FLAG-HMK-IL-15 fusion protein, biotinylated anti-FLAG antibody, and streptavidin-RED670 were employed to detect expression of IL-15 binding sites on human PBMCs by cytofluorometric analysis. […] The stained cells were analyzed by flow cytometry (FIG. 4A). […] Both activated CD4^+ and CD8^+ cells express IL-15α chains (FIG. 4C); Activation induced IL-15α chains were also detected on CD14^+ (monocyte/macrophage) cells and CD16^+ (natural killer) cells.\nPHA-activated PBMCs were washed and incubated with medium alone, or with the FLAG-HMK-IL-15 double mutant. […] The stained cells were analyzed by flow cytometry (FIG. 17)."}, "[3]": {"tested_on": "BAF-BO3 cells transfected with pRcCMV-IL-2Rβ", "assay": "[3H]-TdR proliferation assay, BAF-BO3 cells expressing human IL-2Rβ", "format": "cell-based, murine", "conditions": "for cell proliferation ([3H]-TdR incorporation): cells expressing wild-type human IL-2Rβ subunit", "method": "(§1) The BAF-BO3 cell line is an IL-3-dependent, murine pro-B cell line. A BAF-BO3 cell line that was pre-selected for high expression of the IL-2Rα subunit was kindly provided by T. Taniguchi (Osaka, Japan; Hatakeyama et al., Cell 59:837, 1989). BAF-BO3 cells were transfected with vector control (pRcCMV-0) or cDNA encoding the human IL-2Rβ subunit cloned into pRcCMV (pRcCMV-IL-2Rβ), by electroporation at 350 volts and 500 μFarads using 20 μg of ScaI linearized plasmid. Transfected cells were selected in the presence of 1 mg/ml G418 and tested for the expression of the IL-2Rβ subunit by fluorescence activated cell sorting (FACS) analysis as described (Maslinski et al., Int. Immunol. 4:509, 1992; Hataleyama et al., Cell 59:837, 1989).\nIL-3 dependent BAF-BO3 cells, which constitutively express the IL-2Rγ subunit, were transfected with a control pRcCMV construct (pRcCMV-0) or a pRcCMV construct containing cDNA encoding the full-length human IL-2Rβ_subunit and the neo^r gene (pRcCMV-IL-2Rβ). G418 resistant clones were then selected. Cells that were selected in this way were used to test the biological activity of FLAG-HMK-IL-15. […] Cells were washed twice to remove the medium containing the growth factor IL-3, and starved for 16 hours in RPMI-1640 medium supplemented with 10% FCS, penicillin (0.5 U/ml), and streptomycin (0.5 μg/ml). Cells were then plated at 2×10^4 cells/well, stimulated with FLAG-HMK-IL-15, and cultured for 72 hours at 37° C. in an atmosphere containing 5% CO2. This was followed by a 14 hour “pulse” with 1 μCi of [^3H]-TdR. The BAF-BO3 cells were then harvested and cell-associated radioactivity was measured by scintillation counting as described above.\nIn order to study the effect of various IL-15 related proteins, including the mutant polypeptides described above, on the proliferation of BAF-BO3 cells, the following experiment was performed in vitro. BAF-BO3 cells were transfected in culture with DNA from either pRcCMV-IL-2Rβ or pRcCMV-0."}, "IL-15Rα subunit": {"biological_target": "T1, IL-15Rα subunit (Homo sapiens, UniProt Q13261)", "T1 construct": "endogenous in cells", "T1 sequence (Q13261 31-267)": "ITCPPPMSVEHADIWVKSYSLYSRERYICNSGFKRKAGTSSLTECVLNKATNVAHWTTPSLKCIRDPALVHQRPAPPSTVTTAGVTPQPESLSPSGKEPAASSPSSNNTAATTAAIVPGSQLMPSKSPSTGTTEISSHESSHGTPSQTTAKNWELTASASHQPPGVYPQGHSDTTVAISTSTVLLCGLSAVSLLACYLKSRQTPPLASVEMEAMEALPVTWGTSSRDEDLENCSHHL", "assay": "Cross-linking of [32P]-FLAG-HMK-IL-15 to PHA-activated PBMCs (DSS, SDS-PAGE, autoradiography)", "format": "binding", "method": "After 72 hours in culture, PHA-activated PBMCs were washed twice in cold phosphate-buffered saline (PBS), and 10^7 cells/ml were incubated for 30 minutes at 4° C. in 400 μl of RMPI-1640 medium supplemented with 25 mM HEPES (pH 7.4), 10% FCS, penicillin (0.5 U/ml), and streptomycin (0.5 μg/ml). Supplemented RPMI-1640 medium (20 μl) containing 1 μg of recombinant human IL-15 as a control for non-specific binding or medium alone was then added, and the incubation was continued for 15 minutes before 20 μl of medium containing [^32P]-labeled FLAG-HMK-IL-15 (1 ng, 500,000 cpm) was added to each sample. After further incubation for 1 hour at 4° C., the cells were washed with PBS and resuspended in 250 μl of PBS. Disuccinimidyl suberate (DDS; 1 mM), a cross-linker, was added, and cross-linking was performed as described by Tsudo et al. (Proc. Natl. Acad. Sci. USA 83:9694, 1986). The cross-linked cells were collected by centrifugation, washed, solubilized with extraction buffer (2% Nonidet P-40, 0.14 M NaCl, 25 mM HEPES (pH 7.4), 1 mM phenyl-methylsulfonyl fluoride) and centrifuged. Proteins present in the supernatants of these cell lysates were separated by 8% SDS-PAGE under reducing conditions. An autoradiogram was developed from the dry gel after exposure at −70° C. overnight. […]"}, "PHA-activated PBMCs": {"tested_on": "PHA-activated PBMCs", "assay": "Proliferative response to IL-2 or IL-15 of PBMCs pre-treated with immunosuppressive drugs and PHA", "conditions": "cells pre-treated with PHA and drug, washed, cultured with IL-2 2 days"}, "[4]": {"tested_on": "PHA-activated human PBMCs", "assay": "[3H]-TdR proliferation assay, PHA-activated human PBMCs", "format": "cell-based", "conditions": "PHA-activated PBMCs re-stimulated with reagent", "protocol": "Peripheral blood mononuclear cells (1×10^6/ml) were stimulated with PHA (2 μg/ml) for 72 hours at 37° C. in RPMI-1640 medium supplemented with 10% FCS, penicillin, and streptomycin, as described above.\nIn the next series of experiments, the FLAG-HMK-IL-15 fusion protein was tested in order to determine whether it could function as a biologically active growth factor."}, "[5]": {"tested_on": "BAF-BO3 cells transfected with pRcCMV-0", "assay": "[3H]-TdR proliferation assay, BAF-BO3 vector control cells", "format": "cell-based, murine", "conditions": "vector lacking IL-2Rβ chain sequences", "method": "as §1\nIL-3 dependent BAF-BO3 cells, which constitutively express the IL-2Rγ subunit, were transfected with a control pRcCMV construct (pRcCMV-0) or a pRcCMV construct containing cDNA encoding the full-length human IL-2Rβ_subunit and the neo^r gene (pRcCMV-IL-2Rβ). G418 resistant clones were then selected. Cells that were selected in this way were used to test the biological activity of FLAG-HMK-IL-15. […] The BAF-BO3 cells were then harvested and cell-associated radioactivity was measured by scintillation counting as described above. […]"}, "[6]": {"tested_on": "leukemia cells (MOLT-14, YT, HuT-102, 2A, 2B)", "assay": "Flow cytometry staining of leukemic cell lines with FLAG-HMK-IL-15", "format": "binding", "method": "The cells treated were from the leukemic cell lines MOLT-14, YT, HuT-102, and from cell lines currently being established at Beth Israel Hospital (Boston, Mass.), and designated 2A and 2B. The cultured cells were washed and incubated with either medium alone (tracing alone) or with medium containing the FLAG-HMK-IL-15 polypeptide (tracing filled in). The cells were then incubated with the biotinylated anti-FLAG antibody and stained with RED670-conjugated streptavidin. The stained cells were analyzed by flow cytometry.\nThe cells treated were obtained from the leukemic cell lines MOLT-14, YT, HuT-102, and from cell lines currently being established at Beth Israel Hospital (Boston, Mass.), and named 2A and 2B. The cultured cells were washed and incubated with either medium alone or with medium containing the FLAG-HMK-IL-15 wild-type polypeptide (FIG. 18). The cells were then incubated with the biotinylated anti-FLAG antibody and stained with RED670-conjugated streptavidin. The stained cells were analyzed by flow cytometry."}}, "note": "“Also recorded” adds a separate entry of the source. Read-outs that look alike come from different tables or passages of the source.", "data": [{"molecule": "IL-15: recombinant human IL-15 obtained from PeproTech", "values": [{"measurement": "cell proliferation", "setting": "[1]", "value": "neither cytokine is able to stimulate"}, {"measurement": "blocking of FLAG-HMK-IL-15 binding to PHA activated PBMCs", "setting": "[2]; molar excess of competitor", "value": "blocked"}, {"measurement": "cell proliferation ([3H]-TdR incorporation)", "setting": "[3]", "value": "stimulate the proliferation; also recorded: stimulated cellular proliferation"}, {"measurement": "competition of [32P]-FLAG-HMK-IL-15 cross-linked band", "setting": "IL-15Rα subunit; molar excess of competitor", "value": "failed to detect"}]}, {"molecule": "O=c1c(-c2ccc(O)cc2)coc2cc(O)cc(O)c12", "note": "[genistein]", "values": [{"measurement": "cell viability", "setting": "human PBMCs; genistein 10 μg/ml, 3 days of incubation", "value": "659±15 % of the control"}]}, {"molecule": "C[C@@H]1C[C@H]2[C@@H]3CCC4=CC(=O)C=C[C@]4(C)[C@@]3(F)[C@@H](O)C[C@]2(C)[C@@]1(O)C(=O)CO", "note": "[dexamethasone]", "values": [{"measurement": "proliferative response to IL-2", "setting": "PHA-activated PBMCs", "value": "not inhibited"}]}, {"molecule": "double mutant IL-15: human IL-15 protein bearing a double mutation (Q149D; Q156D), FLAG-HMK tagged", "values": [{"measurement": "binding to PHA-activated human PBMCs", "setting": "[2]; flow cytometry", "value": "bind PHA-activated human PBMCs"}, {"measurement": "inhibition of BAF-BO3 proliferation", "setting": "[3]; IL-15 + double mutant, 30 μl (approximately 50 μg/ml) versus 20 μL of the same concentration", "value": "inhibited proliferation more completely"}, {"measurement": "cell proliferation ([3H]-TdR incorporation)", "setting": "[3]", "value": "did not proliferate"}]}, {"molecule": "CO[C@H]1C[C@@H]2CC[C@@H](C)[C@@](O)(O2)C(=O)C(=O)N2CCCC[C@H]2C(=O)O[C@H]([C@H](C)C[C@@H]2CC[C@@H](O)[C@H](OC)C2)CC(=O)[C@H](C)/C=C(\\C)[C@@H](O)[C@@H](OC)C(=O)[C@H](C)C[C@H](C)/C=C/C=C/C=C/1C", "note": "[rapamycin]", "values": [{"measurement": "cell viability", "setting": "human PBMCs; human, 3 days, 10 ng/ml", "value": "8.5%±10%"}]}, {"molecule": "FLAG-HMK-IL-15: IL-15 polypeptide having an N-terminus covalently bound to the 18 amino acid FLAG-HMK-sequence", "values": [{"measurement": "cell proliferation ([3H]-TdR incorporation)", "setting": "[4]", "value": "proliferate in response to"}, {"measurement": "cell proliferation ([3H]-TdR incorporation)", "setting": "[5]", "value": "does not, however, stimulate the proliferation"}, {"measurement": "binding to leukemia cells", "setting": "[6]", "value": "bind leukemia cells"}, {"measurement": "cell proliferation ([3H]-TdR incorporation)", "setting": "[3]", "value": "stimulates proliferation; also recorded: stimulated cellular proliferation"}, {"measurement": "binding to the IL-15Rα subunit on mitogen-activated PBMCs", "setting": "IL-15Rα subunit; [32P]-labeled protein, DSS cross-linking, 4° C.", "value": "site specific binding"}]}, {"molecule": "FLAG-HMK-IL-15 Q149D single mutant: IL-15 single mutant, glutamine at position 149 changed to aspartate, FLAG-HMK tagged", "values": [{"measurement": "cell proliferation ([3H]-TdR incorporation)", "setting": "[3]", "value": "stimulated cellular proliferation"}]}]}
